Reference: US6476049B2, “Therapeutic agent for intermittent claudication” (Ajinomoto Co., Inc., priority 1999, dated 2002)
Counter-ions that a name gives are not always drawn.

Legend:
[1] = test system: Rabbit Intermittent Claudication Model (injured limb of the high cholesterol chow-loaded rabbit); experiment: Rabbit intermittent claudication model: recovery time of tissue oxygen saturation after exercise (near infrared spectrophotometer); type: in vivo, male New Zealand White Rabbits; details: for Recovery Time of Tissue Oxygen Saturation: 3 days after operation, injured limb, high cholesterol chow-loaded rabbit; for Effect on the recovery time of the tissue oxygen saturation (in words): vs control, drug of the invention 3 mg/kg, pentoxifylline 300 mg/kg, cilostazol 100 mg/kg, sarpogrelate hydrochloride 300 mg/kg
From the text: To male New Zealand White Rabbits, there was given 1% cholesterol-containing RC4 (available from ORIENTAL KOBO Co., Ltd.) chow over 4 weeks (100 g/day/animal) to obtain a high cholesterol-loaded group (8 animals), while normal RC4 (available from ORIENTAL KOBO Co., Ltd.) chow was given to a group of such animals (normal feed-loaded group: 6 animals). The groins of these animals belonging to these two groups were incised in their supine position, under the anesthesia with ketamine and xylazine, followed by exposing the right femoral artery and then repeating, three times, the balloon injury treatment, which comprises the steps of inserting a Fogarty's balloon catheter in a length of 7 cm into the artery, expanding the balloon catheter to a diameter of 5 mm within the right iliac artery and then pulling out the catheter while the balloon catheter was still in the expanded state and finally ligating the right femoral artery. After 3 days from the operation, the both gluteal regions and the posterior of the lower limbs were dissected in the supine position of the animal under the anesthesia with ketamine and xylazine. The probe of a near infrared spectrophotometer was directly fitted to the interior of the both side gastrocnemius muscles, followed by application of electrical stimulation at 1 Hz to the sciatic nerves on both sides for 2 minutes as exercise loads.
After the application of exercise, these animals were kept quiet rest, followed by monitoring the process in which the degree of tissue oxygen saturation reduced during exercise was recovered, using an multi-wavelength-type near infrared spectrophotometer to thus obtain the time required for the recovery of the degree of tissue oxygen saturation in the both limbs. As such multi-wavelength-type near infrared spectrophotometer, there was used MCPD-2000 available from OTSUKA ELECTRONICS Co., Ltd., which had been improved in such a manner that the device could almost simultaneously detect the tissue oxygen saturation for the both side gastrocnemius muscles. In this respect, the distance between the light guide and detector of near infrared light rays was set at a level of 5 mm. A ½ recovered tissue oxygen saturation (½ StO2), which was an intermediate value of the tissue oxygen saturation observed after the application of the exercise (the minimum tissue oxygen saturation after exercise) and the tissue oxygen saturation observed after the recovery of exercise (the maximum tissue oxygen saturation after exercise) and then the recovery time was defined to be the time required for arriving at the level of ½ StO2 after the end of exercise-application.
To male New Zealand White Rabbits, there was given 1% cholesterol-containing RC4 (available from ORIENTAL KOBO Co., Ltd.) chow over 4 weeks (100 g/day/animal), followed by dividing these animals into two groups in such a manner that the total cholesterol levels in the plasma were identical to one another and then subjecting these two groups to treatments identical to those used in the foregoing model.
To these animals, there was orally administered, once a day, 1-formyl-N-(2-(4-(5H-dibenzo [a, d] cyclohepten-5-ylidene)-1-piperidinyl)) ethyl isonipecotic acid amide represented by the formula (2) after dissolving it in water in an amount of 3 mg/kg over the term extending from the day following the operation to the day on which the near infrared spectrophotometric measurement was initiated. On the other hand, distilled water was orally administered to the control group once a day. After 3 days from the operation, the recovery time of the tissue oxygen saturation after exercise was determined using a near infrared spectrophotometer.
The same procedures used in Example 1 were repeated except for using 300 mg/kg of pentoxifylline in place of the compound represented by the formula (2) to thus carry out the determination. […]

[2] = test system: Rat Intermittent Claudication Model; experiment: Rat intermittent claudication model (lauric acid injection): score for lower limb lesion; type: in vivo, male SD rats; details: for Score for Lower Limb Lesion, After 1 day / Score for Lower Limb Lesion, After 3 days / Score for Lower Limb Lesion, After 7 days / Score for Lower Limb Lesion, After 14 days / Score for Lower Limb Lesion, After 21 days: score 0-5, formula (2) hydrochloride 3 mg/kg/day, pentoxifylline 60 mg/kg/day, oral; for Score for Lower Limb Lesion, After 1 day: after 1 day from lauric acid injection (baseline), control 4.0; for Score for Lower Limb Lesion, After 3 days / Score for Lower Limb Lesion, After 7 days / Score for Lower Limb Lesion, After 14 days: control 3.8; for Score for Lower Limb Lesion, After 21 days: control 3.4
Description: (§1) Using an improved model of Corcico et al. (Corcico N. Cardiovasc. Drugs Ther., 1993, 7:241-251), male SD rats were made run on a rat treadmill (available from NATSUME SEISAKUSHO) at a speed of 10 m/min, followed by stepwise raising the running speed by 5 m/min every 3 minutes to thus determine the time (the maximum running time) required till the rats could not run any more and to thus evaluate the running ability of each animal. On the following day, these rats were anesthetized with pentobarbital and then 3.5 mg/ml of sodium laurate solution (available from SIGMA Company; dissolved in a 0.5% glucose aqueous solution) was injected into the right and left femoral arteries at a dose of 100 μl/leg to thus induce artificial intermittent claudication in the animals.
(§2) The same procedures used in Reference Example 2 were repeated using male SD rats (15 animals) to thus establish a rat intermittent claudication model. On the day following the lauric acid-injection, each animal was inspected for the maximum running time and these animals were divided into three groups so that the running abilities of these groups were almost identical to one another. To the first group (drug-administered group), there was orally administered, once a day, 3 mg/kg of hydrochloride of the compound represented by the formula (2) dissolved in distilled water over the term extending from the day following the lauric acid injection to 21st day, while 60 mg/kg of pentoxifylline (available from SIGMA Company) dissolved in distilled water was orally administered to the second group once a day as a comparative example. To the third group (control group), there was orally administered distilled water once a day. After 3, 7, 14 and 21 days from the lauric acid-injection, the maximum running time of each animal was determined to thus evaluate the recovery rate relative to the maximum walking time observed after the day following the lauric acid-injection (this was defined to be 100). In addition, the presence of any lesion on the limbs was simultaneously confirmed. The presence of any lesion on the lower limb was rated according to the following 6 evaluation criteria: 0: normal and all of the 5 toes could widely be opened; 1: limbs could look upward, but the toes could not be opened; 2: the limbs looked downward; 3: not less than 3 claws were necrosed; 4: not less than 3 toes were necrosed; and 5: not less than 3 toes were left out.

[3] = test system: Rat Intermittent Claudication Model; experiment: Rat intermittent claudication model (lauric acid injection): maximum running/walking time on treadmill; type: in vivo, male SD rats; details: for Maximum Walking Time, recovery rate relative to day 1 (defined to be 100), After 1 day: after 1 day from lauric acid injection (baseline = 100); for Maximum Walking Time, recovery rate relative to day 1 (defined to be 100), After 1 day / Maximum Walking Time, recovery rate relative to day 1 (= 100), After 3 days / Maximum Walking Time, recovery rate relative to day 1 (= 100), After 7 days / Maximum Walking Time, recovery rate relative to day 1 (= 100), After 14 days / Maximum Walking Time, recovery rate relative to day 1 (= 100), After 21 days: formula (2) hydrochloride 3 mg/kg/day, pentoxifylline 60 mg/kg/day, oral; for Maximum Walking Time, recovery rate relative to day 1 (= 100), After 3 days: after 3 days from lauric acid injection, control 132; for Maximum Walking Time, recovery rate relative to day 1 (= 100), After 7 days: after 7 days from lauric acid injection, control 177; for Maximum Walking Time, recovery rate relative to day 1 (= 100), After 14 days: after 14 days from lauric acid injection, control 198; for Maximum Walking Time, recovery rate relative to day 1 (= 100), After 21 days: after 21 days from lauric acid injection, control 215
Description: as §1
After 1, 3, 7, 14 and 21 days from the injection of the sodium laurate solution, the maximum running time was determined according to the method described above.
as §2

| Structure (SMILES) | Recovery Time of Tissue Oxygen Saturation ([1]; 100 mg/kg orally once a day, control 2.8 ± 0.97) [min] | Effect on the recovery time of the tissue oxygen saturation (in words) [1] | Recovery Time of Tissue Oxygen Saturation ([1]; 3 mg/kg orally once a day, control 3.8 ± 0.46) [min] | Score for Lower Limb Lesion, After 1 day [2] | Score for Lower Limb Lesion, After 3 days [2] | Score for Lower Limb Lesion, After 7 days [2] | Score for Lower Limb Lesion, After 14 days [2] | Score for Lower Limb Lesion, After 21 days [2] | Maximum Walking Time, recovery rate relative to day 1 (defined to be 100), After 1 day [3] | Maximum Walking Time, recovery rate relative to day 1 (= 100), After 3 days [3] | Maximum Walking Time, recovery rate relative to day 1 (= 100), After 7 days [3] | Maximum Walking Time, recovery rate relative to day 1 (= 100), After 14 days [3] | Maximum Walking Time, recovery rate relative to day 1 (= 100), After 21 days [3] | Recovery Time of Tissue Oxygen Saturation ([1]; 300 mg/kg orally once a day, control 3.8 ± 1.28) [min] | Effect on the development of lesions of the lower limbs (in words) ([2]; vs control group, formula (2) hydrochloride 3 mg/kg, pentoxifylline 60 mg/kg) | Effect on the maximum walking time (in words) ([3]; vs control group, formula (2) hydrochloride 3 mg/kg (after 7 days), pentoxifylline 60 mg/kg) | Recovery Time of Tissue Oxygen Saturation ([1]; 300 mg/kg (table) orally once a day, control 3.9 ± 1.08) [min] |
| --- | --- | --- | --- | --- | --- | --- | --- | --- | --- | --- | --- | --- | --- | --- | --- | --- | --- |
| O=C1CCc2cc(OCCCCc3nnnn3C3CCCCC3)ccc2N1 [Cilostazol, cilostazol] | 3.5 ± 0.52 | does not show any substantial reduction of the recovery time | – | – | – | – | – | – | – | – | – | – | – | – | – | – | – |
| O=CN1CCC(C(=O)NCCN2CCC(=C3c4ccccc4C=Cc4ccccc43)CC2)CC1 [Compound of Formula (2), 1-formyl-N-(2-(4-(5H-dibenzo[a,d]cyclohepten-5-ylidene)-1-piperidinyl))-ethyl-isonipecotic acid amide] | – | – | 2.0 ± 0.40 | 4.0 | 3.2 | 2.2 | 1.7 | 1.5 | 100 | 189 | 256 | 252 | 317 | – | – | – | – |
| CC(=O)CCCCn1c(=O)c2c(ncn2C)n(C)c1=O [Pentoxifylline, pentoxifylline] | – | did not show any reduction in the recovery time | – | 4.0 | 3.7 | 3.7 | 3.3 | 2.5 | 100 | 178 | 189 | 211 | 249 | 7.1 ± 1.65 | the effect was still insufficient | had a tendency of increasing the maximum walking time | – |
| COc1cccc(CCc2ccccc2OCC(CN(C)C)OC(=O)CCC(=O)O)c1 (centres unmarked) [Sarpogrelate · HCl, sarpogrelate hydrochloride] | – | did not show any reduction of the recovery time | – | – | – | – | – | – | – | – | – | – | – | – | – | – | 3.4 ± 1.33 |
